# Results reported in PubChem BioAssay AID743422 (The Scripps Research Institute Molecular Screening Center, 2014).
# Calls of active or inactive are those of the source. No rule for the calls is given here.
# Target: Sphingosine 1-phosphate receptor 1 (Homo sapiens) (UniProt P21453)
# Assay: human S1P1 antagonists, dose response, counter-screen for S1PR3 antagonist project, cell-based, luminescence, late-stage (AID 743422)
# Conditions: Tango EDG-1-bla U2OS cells, beta-lactamase FRET reporter, 5 h S1P
# Sphingosine 1-phosphate receptor 1 (Homo sapiens), sequence (P21453 whole entry, looked up): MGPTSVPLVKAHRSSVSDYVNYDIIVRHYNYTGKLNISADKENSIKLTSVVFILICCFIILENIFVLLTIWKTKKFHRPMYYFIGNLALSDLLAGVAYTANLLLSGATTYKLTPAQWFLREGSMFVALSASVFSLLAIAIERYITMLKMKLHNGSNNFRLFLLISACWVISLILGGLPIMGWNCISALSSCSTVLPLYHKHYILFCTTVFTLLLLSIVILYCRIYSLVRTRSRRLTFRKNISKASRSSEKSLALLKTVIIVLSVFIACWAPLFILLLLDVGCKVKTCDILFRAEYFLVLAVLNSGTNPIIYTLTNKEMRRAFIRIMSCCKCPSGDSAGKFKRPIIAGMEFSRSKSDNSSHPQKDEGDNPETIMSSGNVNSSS
row,SMILES,IC50
1,O=C(NC(c1ccc(Br)cc1)c1nc(-c2ccccc2)no1)c1ccc(Cl)c(Cl)c1 (centres undefined),> 28.2 µM (inactive)
2,O=C(NC(c1cccc(Cl)c1)c1nc(-c2ccccc2)no1)c1cc(Cl)cc(Cl)c1 (centres undefined),0.112 µM
3,O=C(NC(c1ccc(Cl)cc1)c1nc(-c2cccc(Cl)c2)no1)c1cccc(Cl)c1 (centres undefined),> 28.2 µM (inactive)
4,COc1ccc(C(=O)NC(c2ccccc2)c2nc(-c3ccccc3)no2)cc1 (centres undefined),> 28.2 µM (inactive)
5,Cc1ccc(C(=O)NC(c2ccccc2)c2nc(-c3ccccc3)no2)cc1 (centres undefined),> 28.2 µM (inactive)
6,O=C(NC(c1ccc(Cl)cc1)c1nc(-c2ccccn2)no1)c1cccc(Cl)c1 (centres undefined),> 28.2 µM (inactive)
7,O=C(NC(c1ccc(Cl)cc1)c1nc(-c2ccccc2)no1)c1ccc(Cl)c(Cl)c1 (centres undefined),inactive
8,O=C(NC(c1ccc(Cl)c(Cl)c1)c1nc(-c2ccccc2)no1)c1ccc(Cl)cc1 (centres undefined),1.2 µM
9,O=C(c1cccc(Cl)c1)N(CCO)C(c1ccc(Cl)c(Cl)c1)c1nc(-c2ccccc2)no1 (centres undefined),2.7 µM

# Other lines, results leading:
row,IC50,SMILES
1,7.3 µM,O=C(NC(c1ccccc1)c1nc(-c2ccccc2)no1)c1ccc(Cl)cc1 (centres undefined)
2,> 28.2 µM (inactive),O=C(NC(c1ccc(Cl)cc1)c1nc(-c2ccccc2)no1)c1cccc(Cl)c1 (centres undefined)
3,> 28.2 µM (inactive),O=C(NC(Cc1ccccc1)c1nc(-c2ccccc2)no1)c1cccc(Cl)c1 (centres undefined)
4,1.6 µM,O=C(NC(c1ccccc1)c1nc(-c2ccccc2)no1)c1cccc(Cl)c1 (centres undefined)
5,> 28.2 µM (inactive),CCc1ccc(C(NC(=O)c2cccc(Cl)c2)c2nc(-c3ccccc3)no2)cc1 (centres undefined)
